From patent US4663326A, “Pyrazolo[4,3-d]pyrimidine-5,7-(4H,6H)dione or -5-thione-7-one analogs” (Warner-Lambert Company, priority 1985, dated 1987)
Several values for one entry are separate records, joined by “and”; a condition that tells them apart may be missing. Identical values can stand only once.

How the values were obtained:
[1] = biological target: T1, adenosine receptors (designated A1) (Rattus norvegicus, UniProt P25099); assay: Adenosine receptor binding - A1 receptor affinity (RBA1), [3H]-CHA displacement, rat whole brain minus cerebellum and brainstem membranes; set-up: species or system rat (male Long Evans); conditions: 1.0 nM [3H]-CHA, 25° C., pH 7.7; repeat tests (Test 1-4) one line each; read-out: RBA-1 (IC50, adenosine A1 affinity)
T1 construct: Whole brain minus cerebellum and brainstem from male Long Evans rats (150-200 g); from tissue; host or cells: whole brain minus cerebellum and brainstem, male Long Evans rats, membranes
T1 sequence (P25099 1-326): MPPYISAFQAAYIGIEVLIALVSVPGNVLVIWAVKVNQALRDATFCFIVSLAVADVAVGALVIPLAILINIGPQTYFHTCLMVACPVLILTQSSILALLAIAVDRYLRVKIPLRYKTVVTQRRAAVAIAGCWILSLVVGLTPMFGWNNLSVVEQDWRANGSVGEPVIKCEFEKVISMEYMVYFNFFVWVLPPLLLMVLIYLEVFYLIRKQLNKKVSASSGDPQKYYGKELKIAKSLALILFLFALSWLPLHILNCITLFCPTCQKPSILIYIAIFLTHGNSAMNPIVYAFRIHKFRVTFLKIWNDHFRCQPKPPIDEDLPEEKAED
Method: ADENOSINE RECEPTOR BINDING-A1 RECEPTOR AFFINITY (RBA1)
Whole brain minus cerebellum and brainstem from male Long Evans rats (150-200 g) was homogenized in 30 volumes of ice-cold 0.05M Tris-HCl buffer pH 7.7 using a Brinkman Polytron PT-10, (setting number 6 for 20 seconds) and centrifuged for ten minutes at 20,000×g (Sorvall RC-2), 4° C. The supernatant was discarded, and the pellet was resuspended and centrifuged as before. The pellet was resuspended in 20 ml Tris-HCl buffer containing two International Units/ml of adenosine deaminase (Sigma type III from calf intestinal mucosa), incubated at 37° C. for 30 minutes, then subsequently at 0° C. for ten minutes. The homogenate was again centrifuged, and the final pellet was resuspended in ice-cold 0.05M Tris-HCl buffer pH 7.7 to a concentration of 20 mg/ml original wet tissue weight and used immediately.
Tissue homogenate (10 mg/ml) was incubated in 0.05M Tris-HCl buffer pH 7.7 containing 1.0 nM [^3 H]-N^6 -cyclohexyladenosine (^3 H]-CHA) with or without test agents in triplicate for one hour at 25° C. Incubation volume was 2 ml. Unbound [^3 H]-CHA was separated by rapid filtration under reduced pressure through Whatman glass fiber (GF/B) filters. The filters were rinsed three times with 5 ml of ice cold 0.05M Tris-HCl buffer pH 7.7. The radio-labeled ligand retained on the filter was measured by liquid scintillation spectrophotometry after shaking the filters for one hour or longer on a mechanical shaker in 10 ml of Beckman Ready-Solv HP scintillation cocktail.
Nonspecific binding was defined as the binding which occurred in the presence of 1 mM theophylline. The concentration of test agent which inhibited 50% of the specific binding (IC50) was determined by nonlinear computer curve fit. The Scatchard plot was calculated by linear regression of the line obtained by plotting the amount of radioligand bound ([…]) versus [bound radioligand/free radioligand].Since the amount of radioligand bound was a small fraction of the total amount added, free radioligand was defined as the concentration (nM) of radioligand added to the incubation mixture. The Hill coefficient was calculated by linear regression of the line obtained by plotting the log of the bound radioligand vs the log of the [bound radioligand/(Bmax -bound radioligand)]. The maximal number of binding sites (Bmax) was calculated from the Scatchard plot.

Type 1 Phosphodiesterase = assay: PDE inhibition, Type 1 phosphodiesterase, cardiac muscle; type: biochemical; conditions: 1 × 10^-4 M
Method: (§1) Phosphodiesterase activity was measured as described previously (Weishaar, P. E., Quade, M., Boyd, D., Schenden, J., Mark, S. S., Kaplan, H. R., Drug Devel. Res., 3:517-534, 1983), in a reaction medium containing 40 mM Tris-HCl (pH 8.0), 5 mM MgCl and 4 mM 2-mercaptoethanol. Unless otherwise noted, the concentration of substrate (^3 H-cyclic AMP or ^3 H-cyclic GMP) was 1.0 μM. All agents examined were dissolved in dimethyl sulfoxide (DMSO). Final concentration of the reaction medium was either 2.5% (cardiac and platelet studies) or 1.25% (smooth muscle studies). This concentration of DMSO produced an approximately 10% inhibition of enzyme activity. […] Three to four such concentration-response curves were generated for each agent, generally using different enzyme preparations for each concentration-response.

Type 2 Phosphodiesterase = biological target: T2, Type 2 Phosphodiesterase (Cavia porcellus, UniProt A0A286XUV5); assay: PDE inhibition, Type 2 phosphodiesterase, cardiac muscle; type: biochemical; set-up: inhibition: dose or concentration left out as unconfirmed; conditions: for inhibition at 100 µM: 1 × 10^-4 M, read-out: % Inhibition of 3H-cGMP Hydrolysis, Type 2 Phosphodiesterase; for inhibition: read-out: % Inhibition of 3H-cAMP Hydrolysis, Type 2 Phosphodiesterase
T2 construct: from tissue
T2 sequence (A0A286XUV5 22-936): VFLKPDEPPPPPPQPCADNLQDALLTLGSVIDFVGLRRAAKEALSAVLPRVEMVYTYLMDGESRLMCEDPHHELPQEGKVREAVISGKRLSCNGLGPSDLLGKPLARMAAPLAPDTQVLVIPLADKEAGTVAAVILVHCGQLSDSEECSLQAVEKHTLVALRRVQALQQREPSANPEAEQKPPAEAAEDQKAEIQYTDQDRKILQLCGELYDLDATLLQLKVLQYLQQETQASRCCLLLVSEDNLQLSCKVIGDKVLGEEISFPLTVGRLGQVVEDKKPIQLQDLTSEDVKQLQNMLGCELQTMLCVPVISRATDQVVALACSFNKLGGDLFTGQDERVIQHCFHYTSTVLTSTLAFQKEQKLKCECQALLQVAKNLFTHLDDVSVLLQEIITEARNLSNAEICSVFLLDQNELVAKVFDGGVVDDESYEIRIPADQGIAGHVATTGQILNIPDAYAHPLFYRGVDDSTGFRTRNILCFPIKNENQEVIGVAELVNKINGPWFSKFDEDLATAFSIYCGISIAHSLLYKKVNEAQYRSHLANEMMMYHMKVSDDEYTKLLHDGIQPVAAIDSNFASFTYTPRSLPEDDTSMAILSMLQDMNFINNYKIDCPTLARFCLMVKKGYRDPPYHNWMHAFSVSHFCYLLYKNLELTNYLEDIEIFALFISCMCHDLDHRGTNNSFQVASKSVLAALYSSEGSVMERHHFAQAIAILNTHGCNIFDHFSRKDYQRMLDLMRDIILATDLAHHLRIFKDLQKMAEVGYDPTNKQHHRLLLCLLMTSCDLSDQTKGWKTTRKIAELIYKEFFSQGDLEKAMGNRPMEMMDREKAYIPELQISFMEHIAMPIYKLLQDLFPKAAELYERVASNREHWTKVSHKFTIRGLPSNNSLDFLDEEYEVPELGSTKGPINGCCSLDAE
Method: as §1

Type 3 Phosphodiesterase = assay: PDE inhibition, Type 3 phosphodiesterase, cardiac muscle; type: biochemical; conditions: 1 × 10^-4 M
Method: as §1

histamine = assay: Bronchodilator test (BCA), histamine spasmogen, guinea pigs; type: in vivo, Hartley Guinea Pigs; set-up: key: Active; conditions: 50 mg/kg
Description: The compounds of this invention may be determined to have antiallergy activity by a standard laboratory means employing the bronchodilator test (BCA) readily accepted as a standard for antiallergy activity, which is described in Siegmund, H. O., et al (J. Pharmacol. and Exptl., 90:254, 1949 and Herxheimer, H., J. Physiol., 117: 252-255, 1952). Thus, antiallergy activity was found for compounds of this invention by this BCA test using Hartley Guinea Pigs by the procedures as described below.
Naive (BCA) pigs are exposed to spasmogen for ten minutes by means of a De Vilbiss number 40 nebulizer positioned at the back of a closed, six unit plexiglas chamger (19×12.5×9"). Air flow is adjusted to give a pressure of 10 lbs/in; six animals per treatment are averaged, and the mean value for compound treated animals is compared to that for animals treated with vehicle. […]
The spasmogen may be acetylcholine chloride (0.3%), histamine (0.1%), methacholine chloride (Mecholyl) (0.1%) or serotonin creatinine sulfate. Each nebulizer dispenses 0.2 cc/minute.

Row | IC50 [1] | % Inhibition of 3H-cAMP Hydrolysis, Type 1 Phosphodiesterase (Type 1 Phosphodiesterase) | % Inhibition of 3H-cGMP Hydrolysis, Type 1 Phosphodiesterase (Type 1 Phosphodiesterase) | inhibition at 100 µM (Type 2 Phosphodiesterase) [%] | inhibition (Type 2 Phosphodiesterase) [%] | % Inhibition of 3H-cAMP Hydrolysis, Type 3 Phosphodiesterase (Type 3 Phosphodiesterase) | SMILES | BCA Results, Ratings (histamine)
1 | – | C (21-35% inhibition at 1 × 10^-5 M) | N (0-20% inhibition at 1 × 10^-5 M) | 36 to 55 | 36 to 55 | C (21-35% inhibition at 1 × 10^-5 M) | Cc1nn(C)c2c(=O)n(C)c(=O)n(C)c12 [Example 7, 1,3,4,6-tetramethyl-1H-pyrazolo[4,3-d]pyrimidine-5,7-[4H,6H]dione] | A
2 | – | B (36-55% inhibition at 1 × 10^-5 M) | B (36-55% inhibition at 1 × 10^-5 M) | 56 to 100 | 56 to 100 | A (56-100% inhibition at 1 × 10^-5 M) | CCn1c(=O)c2c(c(C)nn2C)n(CC)c1=O [Example 8, 4,6-Diethyl-1,3-dimethyl-1H-pyrazolo[4,3-d]pyrimidine-5,7-[4H,6H]dione] | A
3 | – | A (56-100% inhibition at 1 × 10^-5 M) | A (56-100% inhibition at 1 × 10^-5 M) | 56 to 100 | 56 to 100 | A (56-100% inhibition at 1 × 10^-5 M) | CCCn1c(=O)c2c(c(C)nn2C)n(CCC)c1=O [Example 9, 1,3-dimethyl-4,6-dipropyl-1H-pyra-3-zolo[4,3-d]pyrimidine-5,7-[4H,6H]dione] | –

Continued, molecule first:

Row | SMILES | IC50 [1] | % Inhibition of 3H-cAMP Hydrolysis, Type 1 Phosphodiesterase (Type 1 Phosphodiesterase) | % Inhibition of 3H-cGMP Hydrolysis, Type 1 Phosphodiesterase (Type 1 Phosphodiesterase) | inhibition at 100 µM (Type 2 Phosphodiesterase) [%] | inhibition (Type 2 Phosphodiesterase) [%] | % Inhibition of 3H-cAMP Hydrolysis, Type 3 Phosphodiesterase (Type 3 Phosphodiesterase) | BCA Results, Ratings (histamine)
4 | CCn1nc(C)c2[nH]c(=O)[nH]c(=O)c21 [Example 3, 1-Ethyl-3-methyl-1H-pyrazolo[4,3-d]pyrimidine-5,7(4H,6H)dione] | 5.88 µM | B (36-55% inhibition at 1 × 10^-5 M) | B (36-55% inhibition at 1 × 10^-5 M) | 36 to 55 | 36 to 55 | A (56-100% inhibition at 1 × 10^-5 M) | A
5 | CCn1c(=O)[nH]c2c(C)nn(CC)c2c1=O [Example 4, 1-Ethyl-3-methyl-6ethyl-1H-pyrazolo[4,3-d]pyrimidine-5,7-[4H,6H]dione] | 1.04 µM and 1.52 µM | A (56-100% inhibition at 1 × 10^-5 M) | A (56-100% inhibition at 1 × 10^-5 M) | 56 to 100 | 56 to 100 | A (56-100% inhibition at 1 × 10^-5 M) | A
6 | CCCn1c(=O)[nH]c2c(C)nn(CC)c2c1=O [Example 5, 1H-1-Ethyl-3-methyl-6-propyl-pyrazolo[4,3-d]pyrimidine-5,7-[4H,6H]dione] | 0.458 µM and 0.992 µM and 0.378 µM and 0.401 µM | A (56-100% inhibition at 1 × 10^-5 M) | A (56-100% inhibition at 1 × 10^-5 M) | 56 to 100 | 56 to 100 | B (36-55% inhibition at 1 × 10^-5 M) | A
7 | CCn1nc(C)c2[nH]c(=O)n(C)c(=O)c21 [Example 6, 1-Ethyl-3,6-dimethyl-1H-pyrazolo-[4,3-d]pyrimidine-5,7-[4H,6H]dione] | 2.53 µM | A (56-100% inhibition at 1 × 10^-5 M) | A (56-100% inhibition at 1 × 10^-5 M) | 56 to 100 | 36 to 55 | A (56-100% inhibition at 1 × 10^-5 M) | A
